Key:
Assay in all cases: relative viability (nuclei count vs DMSO), 5 days (fraction); higher = more cells survive
[1] = system: A-427
Summary of the method: (§1)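 Five library-drug doses in √10 steps were combined with a fixed anchor-drug dose, or a single drug was given alone, by pin tool to lung cancer cell lines in 1536-well plates the day after seeding. Nuclei were stained and counted after 5 days. Relative viability is the nuclei count in treated wells over that in vehicle wells, taken as the median of duplicate plates.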

[2] = system: ABC-1
Summary of the method: as §1

[3] = system: COR-L23
Summary of the method: as §1

[4] = system: EMC-BAC-2
Summary of the method: as §1

[5] = system: HARA
Summary of the method: as §1

[6] = system: HOP-62
Summary of the method: as §1

[7] = system: LK-2
Summary of the method: as §1

[8] = system: LXF-289
Summary of the method: as §1

[9] = system: NCI-H1792
Summary of the method: as §1

[10] = system: NCI-H1793
Summary of the method: as §1

[11] = system: NCI-H1944
Summary of the method: as §1

[12] = system: NCI-H1993
Summary of the method: as §1

[13] = system: NCI-H2009
Summary of the method: as §1

[14] = system: NCI-H2170
Summary of the method: as §1

[15] = system: NCI-H2228
Summary of the method: as §1

[16] = system: NCI-H3122
Summary of the method: as §1

[17] = system: NCI-H596
Summary of the method: as §1

[18] = system: NCI-H727
Summary of the method: as §1

[19] = system: PC-3 [JPC-3]
Summary of the method: as §1

[20] = system: SK-LU-1
Summary of the method: as §1

[21] = system: SK-MES-1
Summary of the method: as §1

[22] = system: SW 1573
Summary of the method: as §1

[23] = system: SW 900
Summary of the method: as §1

NC(=O)Nc1cc(-c2cccc(F)c2)sc1C(=O)N[C@H]1CCCNC1 [AZD7762] + O=C(c1cc(Cc2n[nH]c(=O)c3ccccc23)ccc1F)N1CCN(C(=O)C2CC2)CC1 [Olaparib] (partner 8 µM)
relative viability ([1]; first compound 0.01 µM): 0.865 | relative viability ([1]; first compound 0.03162 µM): 0.767 | relative viability ([1]; first compound 0.1 µM): 0.78 | relative viability ([1]; first compound 0.3162 µM): 0.733 | relative viability ([1]; first compound 1 µM): 0.379 | relative viability ([2]; first compound 0.01 µM): 0.968 | relative viability ([2]; first compound 0.03162 µM): 0.857 | relative viability ([2]; first compound 0.1 µM): 0.893 | relative viability ([2]; first compound 0.3162 µM): 0.938 | relative viability ([2]; first compound 1 µM): 0.685 | relative viability ([3]; first compound 0.01 µM): 0.405 | relative viability ([3]; first compound 0.03162 µM): 0.248 | relative viability ([3]; first compound 0.1 µM): 0.215 | relative viability ([3]; first compound 0.3162 µM): 0.166 | relative viability ([3]; first compound 1 µM): 0.0843 | relative viability ([4]; first compound 0.01 µM): 0.612 | relative viability ([4]; first compound 0.03162 µM): 0.628 | relative viability ([4]; first compound 0.1 µM): 0.626 | relative viability ([4]; first compound 0.3162 µM): 0.64 | relative viability ([4]; first compound 1 µM): 0.547 | relative viability ([5]; first compound 0.01 µM): 0.768 | relative viability ([5]; first compound 0.03162 µM): 0.759 | relative viability ([5]; first compound 0.1 µM): 0.507 | relative viability ([5]; first compound 0.3162 µM): 0.301 | relative viability ([5]; first compound 1 µM): 0.229 | relative viability ([6]; first compound 0.01 µM): 0.541 | relative viability ([6]; first compound 0.03162 µM): 0.239 | relative viability ([6]; first compound 0.1 µM): 0.313 | relative viability ([6]; first compound 0.3162 µM): 0.297 | relative viability ([6]; first compound 1 µM): 0.136 | relative viability ([7]; first compound 0.01 µM): 0.789 | relative viability ([7]; first compound 0.03162 µM): 1 | relative viability ([7]; first compound 0.1 µM): 0.729 | relative viability ([7]; first compound 0.3162 µM): 0.623 | relative viability ([7]; first compound 1 µM): 0.435 | relative viability ([8]; first compound 0.01 µM): 1.11 | relative viability ([8]; first compound 0.03162 µM): 1.18 | relative viability ([8]; first compound 0.1 µM): 1.21 | relative viability ([8]; first compound 0.3162 µM): 1.16 | relative viability ([8]; first compound 1 µM): 1.28 | relative viability ([9]; first compound 0.01 µM): 0.336 | relative viability ([9]; first compound 0.03162 µM): 0.421 | relative viability ([9]; first compound 0.1 µM): 0.364 | relative viability ([9]; first compound 0.3162 µM): 0.352 | relative viability ([9]; first compound 1 µM): 0.221 | relative viability ([10]; first compound 0.01 µM): 0.886 | relative viability ([10]; first compound 0.03162 µM): 0.909 | relative viability ([10]; first compound 0.1 µM): 0.917 | relative viability ([10]; first compound 0.3162 µM): 0.997 | relative viability ([10]; first compound 1 µM): 0.248 | relative viability ([11]; first compound 0.01 µM): 0.46 | relative viability ([11]; first compound 0.03162 µM): 0.448 | relative viability ([11]; first compound 0.1 µM): 0.504 | relative viability ([11]; first compound 0.3162 µM): 0.532 | relative viability ([11]; first compound 1 µM): 0.446 | relative viability ([12]; first compound 0.01 µM): 1.18 | relative viability ([12]; first compound 0.03162 µM): 1.03 | relative viability ([12]; first compound 0.1 µM): 1.12 | relative viability ([12]; first compound 0.3162 µM): 1.42 | relative viability ([12]; first compound 1 µM): 0.922 | relative viability ([13]; first compound 0.01 µM): 0.719 | relative viability ([13]; first compound 0.03162 µM): 0.726 | relative viability ([13]; first compound 0.1 µM): 0.747 | relative viability ([13]; first compound 0.3162 µM): 0.521 | relative viability ([13]; first compound 1 µM): 0.34 | relative viability ([14]; first compound 0.01 µM): 0.553 | relative viability ([14]; first compound 0.03162 µM): 0.579 | relative viability ([14]; first compound 0.1 µM): 0.535 | relative viability ([14]; first compound 0.3162 µM): 0.423 | relative viability ([14]; first compound 1 µM): 0.254 | relative viability ([15]; first compound 0.01 µM): 0.659 | relative viability ([15]; first compound 0.03162 µM): 0.778 | relative viability ([15]; first compound 0.1 µM): 0.637 | relative viability ([15]; first compound 0.3162 µM): 0.311 | relative viability ([15]; first compound 1 µM): 0.193 | relative viability ([16]; first compound 0.01 µM): 0.681 | relative viability ([16]; first compound 0.03162 µM): 0.527 | relative viability ([16]; first compound 0.1 µM): 0.588 | relative viability ([16]; first compound 0.3162 µM): 0.477 | relative viability ([16]; first compound 1 µM): 0.404 | relative viability ([17]; first compound 0.01 µM): 0.723 | relative viability ([17]; first compound 0.03162 µM): 0.631 | relative viability ([17]; first compound 0.1 µM): 0.609 | relative viability ([17]; first compound 0.3162 µM): 0.552 | relative viability ([17]; first compound 1 µM): 0.478 | relative viability ([18]; first compound 0.01 µM): 0.735 | relative viability ([18]; first compound 0.03162 µM): 0.723 | relative viability ([18]; first compound 0.1 µM): 0.931 | relative viability ([18]; first compound 0.3162 µM): 0.717 | relative viability ([18]; first compound 1 µM): 0.543 | relative viability ([19]; first compound 0.01 µM): 1.19 | relative viability ([19]; first compound 0.03162 µM): 1.06 | relative viability ([19]; first compound 0.1 µM): 1.12 | relative viability ([19]; first compound 0.3162 µM): 1.05 | relative viability ([19]; first compound 1 µM): 0.634 | relative viability ([20]; first compound 0.01 µM): 0.477 | relative viability ([20]; first compound 0.03162 µM): 0.389 | relative viability ([20]; first compound 0.1 µM): 0.306 | relative viability ([20]; first compound 0.3162 µM): 0.244 | relative viability ([20]; first compound 1 µM): 0.186 | relative viability ([21]; first compound 0.01 µM): 0.831 | relative viability ([21]; first compound 0.03162 µM): 0.828 | relative viability ([21]; first compound 0.1 µM): 0.506 | relative viability ([21]; first compound 0.3162 µM): 0.247 | relative viability ([21]; first compound 1 µM): 0.189 | relative viability ([22]; first compound 0.01 µM): 0.453 | relative viability ([22]; first compound 0.03162 µM): 0.526 | relative viability ([22]; first compound 0.1 µM): 0.403 | relative viability ([22]; first compound 0.3162 µM): 0.408 | relative viability ([22]; first compound 1 µM): 0.221 | relative viability ([23]; first compound 0.01 µM): 0.887 | relative viability ([23]; first compound 0.03162 µM): 0.835 | relative viability ([23]; first compound 0.1 µM): 0.727 | relative viability ([23]; first compound 0.3162 µM): 0.949 | relative viability ([23]; first compound 1 µM): 0.47
